According to patent US8383814B2, “Substituted tetrahydropyran spiro pyrrolidinone and piperidinone, preparation and therapeutic use thereof” (Sanofi, priority 2008, dated 2013):
pKi: −log10 of the molar value.

Experiments:
[1] = molecular target: T1, rhesus (Macacca Mulatta) H3 receptor (Macaca mulatta, UniProt Q865E1); assay: Rhesus H3 radioligand binding assay ([3H]-methylhistamine displacement, WGA SPA beads); parameters: species or system rhesus monkey (Macacca Mulatta); details: [3H]-methylhistamine 2 nM; membranes of Flp-In T-REx 293 cells expressing rhesus H3; Cheng-Prusoff
T1 construct: pcDNA5/FRT/TO (Invitrogen) containing the rhesus monkey (Macacca Mulatta) 445 amino acid H3 receptor
T1 sequence (Q865E1 1-445): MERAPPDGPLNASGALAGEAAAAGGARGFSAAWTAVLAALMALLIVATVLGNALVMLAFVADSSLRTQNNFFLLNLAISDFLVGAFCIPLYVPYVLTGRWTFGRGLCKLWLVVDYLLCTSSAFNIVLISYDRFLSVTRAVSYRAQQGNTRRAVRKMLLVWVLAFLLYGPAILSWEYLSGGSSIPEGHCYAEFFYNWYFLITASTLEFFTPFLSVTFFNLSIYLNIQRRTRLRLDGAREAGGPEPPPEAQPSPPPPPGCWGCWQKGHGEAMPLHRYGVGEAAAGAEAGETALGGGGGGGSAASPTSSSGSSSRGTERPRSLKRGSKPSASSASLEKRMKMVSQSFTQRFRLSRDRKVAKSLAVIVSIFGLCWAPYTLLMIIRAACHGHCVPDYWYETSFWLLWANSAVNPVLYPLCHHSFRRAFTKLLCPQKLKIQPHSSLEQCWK
Procedure: (§1) Rhesus H3 membranes were prepared from the Flp-In T-REx 293 Cell Line (Invitrogen) stably transfected with pcDNA5/FRT/TO (Invitrogen) containing the rhesus monkey (Macacca Mulatta) 445 amino acid H3 receptor. (Genbank #AY231164). Stably transfected cultures were amplified in tissue culture flasks by standard tissue culture methods and induced to express rhesus H3 by exposure to 500 ng/ml tetracycline (Cellgro) for 24 hours. After induction, cells were dissociated from flasks utilizing Cell Stripper (Cellgro). Cells were centrifuged (1K×g, 5 min) and pellet frozen in an ethanol-dry ice bath to disrupt cell membranes. Frozen cell pellet was re-suspended in 5 mM HEPES (pH 7.4, Invitrogen) at 10 ml/1000 cm2 of harvested cells. The cell suspension was drawn through an 18 gauge needle (2-3×) followed by a 23 gauge needle (2-3×) to further disrupt cell membranes. The cell suspension was centrifuged (40K×g, 30 min). Cell membrane pellet was re-suspended in 5 mM HEPES (pH 7.4, Invitrogen) at a final protein concentration of 10 mg/ml. Rhesus H3 membranes were stored under liquid nitrogen prior to use in [3H]-Methylhistamine and GTP S radioligand binding assays.
Rhesus H3 radioligand binding assay was performed using rhesus H3 receptor membranes (prepared as described above), [3H]-Methylhistamine (Perkin Elmer) and WGA SPA beads (wheat germ agglutinin scintillation proximity assay) beads (Amersham). The assay was performed in 96-well Opti-Plates (Packard). Each reaction contained 50 μl rhesus H3 membranes (20-30 μg total protein), 50 μl WGA SPA beads (0.1 μg) and 50 μl of 83 Ci/mmol [^3H]-Methylhistamine (final concentration 2 nM) and 50 μl of tested compound. The compounds of this invention and/or vehicle were diluted with binding buffer from 10 mM DMSO stocks. Assay plates were sealed with TopSeal (Perkin Elmer) and mixed on shaker (25° C., 1 hour). Assay plates were read on TopCount scintillation counter (Packard). Results were analyzed by Hill transformation and Ki values were determined by Cheng-Prusoff equation.

rhesus H3 receptor = assay: GTPγS radioligand binding assay: inhibition of rhesus H3 constitutive functional activity in cell membranes (inverse agonism); assay type: biochemical, rhesus monkey (Macacca Mulatta); parameters: concentration or dose not given beside the values; details: negative value = below basal level
Procedure: as §1

`Cc1cc(N2CC[C@H](N3CCC[C@H]3C)C2)ccc1N1CCCC2(CCOCC2)C1=O` [Example 28, 2-[2-Methyl-4-((2R,3′S)-2-methyl-[1,3′]bipyrrolidinyl-1′-yl)-phenyl]-9-oxa-2-aza-spiro[5.5]undecan-1-one] was tested, and the pKi [1] was 7.89 and the “Inverse Agonism: % inhibition of Basal GTPγS binding in Rhesus H3” value (shortened to “Inverse Agonism: % inhibition”) (rhesus H3 receptor) was −13%.

In the case of `Cc1cc(N2CC[C@@H](N3CCC[C@H]3C)C2)ccc1N1CCC2(CCOCC2)C1=O` [Example 29, 2-[2-Methyl-4-((2R,3′R)-2-methyl-[1,3′]bipyrrolidinyl-1′-yl)-phenyl]-8-oxa-2-aza-spiro[4.5]decan-1-one], the pKi [1] was 7.55 and the “Inverse Agonism: % inhibition” value (rhesus H3 receptor) was −28%.

In the case of `Cc1cc(N2CC[C@@H](N3CCC[C@@H]3C)C2)ccc1N1CCC2(CCOCC2)C1=O` [Example 30], the pKi [1] was 8.37 and the “Inverse Agonism: % inhibition” value (rhesus H3 receptor) was −29%.

With `Cc1cc(N2CCC(N3CCCC3C)C2)ccc1N1CCC2(CCOCC2)C1=O` (centres unmarked) [Example 31, 2-[2-Methyl-4-(2-methyl-[1,3′]bipyrrolidinyl-1′-yl)-phenyl]-8-oxa-2-aza-spiro[4.5]decan-1-one] the pKi [1] was 8.21 and the “Inverse Agonism: % inhibition” value (rhesus H3 receptor) was −28%.

In the case of `Cc1cc(N2CC[C@@H](N3CCC[C@H]3C)C2)ccc1N1CCCC2(CCOCC2)C1=O` [Example 32, 2-[2-Methyl-4-((2R,3′R)-2-methyl-[1,3′]bipyrrolidinyl-1′-yl)-phenyl]-9-oxa-2-aza-spiro[5.5]undecan-1-one], the pKi [1] was 7.96 and the “Inverse Agonism: % inhibition” value (rhesus H3 receptor) was −15%.

In the case of `Cc1cc(N2CC[C@@H](N3CCC[C@@H]3C)C2)ccc1N1CCCC2(CCOCC2)C1=O` [Example 33], the pKi [1] was 8.85 and the “Inverse Agonism: % inhibition” value (rhesus H3 receptor) was −19%.

In the case of `C[C@@H]1CCCN1[C@H]1CCN(c2ccc(N3CCCC4(CCOCC4)C3=O)cc2)C1` [Example 34, 2-[4-((2R,3′S)-2-Methyl-[1,3′]bipyrrolidinyl-1′-yl)-phenyl]-9-oxa-2-aza-spiro[5.5]undecan-1-one], the pKi [1] was 8.77 and the “Inverse Agonism: % inhibition” value (rhesus H3 receptor) was −12%.

`C[C@@H]1CCCN1[C@@H]1CCN(c2ccc(N3CCCC4(CCOCC4)C3=O)cc2)C1` [Example 35, 2-[4-((2R,3′R)-2-Methyl-[1,3′]bipyrrolidinyl-1′-yl)-phenyl]-9-oxa-2-aza-spiro[5.5]undecan-1-one] was tested, and the pKi [1] was 9.15 and the “Inverse Agonism: % inhibition” value (rhesus H3 receptor) was −13%.

`C[C@H]1CCCN1[C@@H]1CCN(c2ccc(N3CCCC4(CCOCC4)C3=O)cc2)C1` [Example 36, 2-[4-((2S,3′R)-2-Methyl-[1,3′]bipyrrolidinyl-1′-yl)-phenyl]-9-oxa-2-aza-spiro[5.5]undecan-1-one] was tested, and the pKi [1] was 9.59 and the “Inverse Agonism: % inhibition” value (rhesus H3 receptor) was −10%.

In the case of `C[C@H]1CCCN1[C@H]1CCN(c2ccc(N3CCCC4(CCOCC4)C3=O)cc2)C1` [Example 37, 2-[4-((2S,3′S)-2-Methyl-[1,3′]bipyrrolidinyl-1′-yl)-phenyl]-9-oxa-2-aza-spiro[5.5]undecan-1-one], the pKi [1] was 10.00 and the “Inverse Agonism: % inhibition” value (rhesus H3 receptor) was −20%.

`C[C@@H]1CCCN1[C@H]1CCN(c2ccc(N3CCCC4(CCOCC4)C3=O)c(F)c2)C1` [Example 38, 2-[2-Fluoro-4-((2R,3′S)-2-Methyl-[1,3′]bipyrrolidinyl-1′-yl)-phenyl]-9-oxa-2-aza-spiro[5.5]undecan-1-one] was tested, and the pKi [1] was 8.89 and the “Inverse Agonism: % inhibition” value (rhesus H3 receptor) was −22%.

For `C[C@@H]1CCCN1[C@@H]1CCN(c2ccc(N3CCCC4(CCOCC4)C3=O)c(F)c2)C1` [Example 39, 2-[2-Fluoro-4-((2R,3′R)-2-Methyl-[1,3′]bipyrrolidinyl-1′-yl)-phenyl]-9-oxa-2-aza-spiro[5.5]undecan-1-one], the pKi [1] was 9.12 and the “Inverse Agonism: % inhibition” value (rhesus H3 receptor) was −13%.

In the case of `C[C@H]1CCCN1[C@@H]1CCN(c2ccc(N3CCCC4(CCOCC4)C3=O)c(F)c2)C1` [Example 40, 2-[2-Fluoro-4-((2S,3′R)-2-Methyl-[1,3′]bipyrrolidinyl-1′-yl)-phenyl]-9-oxa-2-aza-spiro[5.5]undecan-1-one], the pKi [1] was 10.05 and the “Inverse Agonism: % inhibition” value (rhesus H3 receptor) was −18%.
